Reference: patent US10736883B2, “Triazole furan compounds as agonists of the APJ receptor” (AMGEN INC., priority 2016, dated 2020)

Legend:
APJ receptor = APJ receptor (Homo sapiens (Human), UniProt P35414); assay: [35S]GTPγS binding assay on membranes from CHO cells stably expressing human APJ receptor; assay type: biochemical; settings: membranes of CHO cells stably expressing human APJ receptor, means of several independent experiments, read-out: Activity hAPJ SPA EC50 IP
Method in brief: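 EC50 values were obtained by non-linear regression of [35S]GTPγS (0.2 nM) binding after 90 min at RT, with nonspecific binding defined by 100 μM GTPγS. Reactions used human APJ–expressing CHO cell membranes on WGA PS beads in HEPES pH 7.5 buffer with 5 mM MgCl2, 200 mM NaCl, 3 μM GDP and 0.1% BSA.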

[1] = tested on: isolated perfused rat hearts; assay: Ex vivo isolated perfused rat heart (Langendorff) assay, load independent inotropic/lusitropic effects; settings: percent change over vehicle; for Isolated Heart Assay dP/dtmax (%): contractility; for Isolated Heart Assay dP/dtmin (%): relaxation
From the text: Evidence for Load Independent Inotropic Effects with APJ Agonists Using Ex Vivo Assay (Isolated Perfused Rat Hearts)
Naive Sprague Dawley® SD rats (Harlan laboratories (Livermore, Calif. USA)) were anaesthetized and hearts were excised followed by cannulation in the Langendorff apparatus (Harvard apparatus, Holliston, Mass. USA) via aorta. The heart was perfused retrograde with modified oxygenated Krebs-Henseleit buffer (Skrzypiec-Spring M et al., (2007) J. Pharmacol Toxicol Methods 55: 113-126). The pressure of the solution causes the aortic valve to shut and the perfusate is then forced into the ostium and the coronary vessels. This allows the heart to beat for several hours. A balloon was inserted into the left ventricle (LV) to measure dP/dtmax (derivative of left ventricular pressure) as an index of cardiac contractility. The APJ agonist was perfused constantly in a dose dependent manner into the heart to examine cardiac contractility.
Example 210.0 was infused at different concentrations and load independent contractility was measured by index of LV dP/dtmax and the results are expressed as a percent change over vehicle. […] Example 210.0 was infused at different concentrations and load independent lusitropic effect (relaxation) was measured by index of LV dP/dtmin where results are expressed as percent change over vehicle. […] Example 51.0 was infused at different concentrations and load independent contractility was measured by index of LV dP/dtmax and the results are expressed as a percent change over vehicle. […] Example 51.0 was infused at different concentrations and load independent lusitropic effect (relaxation) was measured by index of LV dP/dtmin where results are expressed as percent change over vehicle.

heart failure rat model = assay: In vivo cardiac contractility in heart failure (MI) rat model; settings: heart failure rats (LAD ligation), acute administration for 30 min
Experimental: Evidence for Improvement in Cardiac Contractility In Vivo in Heart Failure Rat Model
Based on the ex vivo findings in isolated heart assay, APJ agonists were dosed in vivo to investigate the translation of cardiac contractility in in vivo settings. Male Lewis rats (Charles River, USA) at 2-3 months of age were used for the study. Heart failure was induced by permanent ligation of the left descending coronary artery which results in injury to the heart with an ejection fraction of <35%. APJ agonists were administered dose dependently acutely for a period of 30 min. Administration of example compounds lead to an increase in cardiac contractility as measured by dP/dtmax (derivative of left ventricular pressure) (Table 27).

Sequence of APJ receptor (P35414 whole entry): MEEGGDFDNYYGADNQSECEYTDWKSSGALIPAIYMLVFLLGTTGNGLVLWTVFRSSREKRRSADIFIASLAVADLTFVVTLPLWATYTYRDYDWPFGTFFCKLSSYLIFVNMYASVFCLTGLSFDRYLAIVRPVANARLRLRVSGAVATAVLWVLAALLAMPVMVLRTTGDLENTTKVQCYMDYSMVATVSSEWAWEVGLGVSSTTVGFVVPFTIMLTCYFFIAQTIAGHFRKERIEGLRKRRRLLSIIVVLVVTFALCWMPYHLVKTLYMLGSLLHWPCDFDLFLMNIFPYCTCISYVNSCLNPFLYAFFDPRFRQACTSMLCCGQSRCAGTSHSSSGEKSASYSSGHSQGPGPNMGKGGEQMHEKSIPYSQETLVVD

SMILES	EC50 (APJ receptor) [nM]	Isolated Heart Assay dP/dtmax (%) [1] [%]	Isolated Heart Assay dP/dtmin (%) [1] [%]	MI Rat Model dP/dtmax (%) (heart failure rat model)
COc1cccc(OC)c1-n1c(NS(=O)(=O)CCc2ncc(C)cn2)nnc1-c1ccc(C)o1 [Example 26.0, N-(4-(2,6-dimethoxyphenyl)-5-(5-methyl-2-furanyl)-4H-1,2,4-triazol-3-yl)-2-(5-methyl-2-pyrimidinyl)ethanesulfonamide]	0.42	10.20	11.1	58
COc1cccc(OC)c1-n1c(NS(=O)(=O)CCc2ccc(F)cn2)nnc1-c1ccco1 [Example 41.0, N-(4-(2,6-dimethoxyphenyl)-5-(2-furanyl)-4H-1,2,4-triazol-3-yl)-2-(5-fluoro-2-pyridinyl)ethanesulfonamide]	–	22.1	22.7	–
COc1cccc(OC)c1-n1c(NS(=O)(=O)[C@@H](C)Cc2ncc(F)cn2)nnc1-c1ccc(C)o1 (single isomer, unassigned) [Example 108.0, (2S)—N-(4-(2,6-Dimethoxyphenyl)-5-(5-methyl-2-furanyl)-4H-1,2,4-triazol-3-yl)-1-(5-fluoro-2-pyrimidinyl)-2-propanesulfonamide or (2R)—N-(4-(2,6-dimethoxyphenyl)-5-(5-methyl-2-furanyl)-4H-1,2,4-triazol-3-yl)-1-(5-fluoro-2-pyrimidinyl)-2-propanesulfonamide]	0.25	38.8	30.1	–
COc1cccc(OC)c1-n1c(NS(=O)(=O)[C@H](C)Cc2ccc(Cl)cc2)nnc1-c1ccco1 (single isomer, unassigned) [Example 205.0, (2R)-1-(4-chlorophenyl)-N-(4-(2,6-dimethoxyphenyl)-5-(2-furanyl)-4H-1,2,4-triazol-3-yl)-2-propanesulfonamide or (2S)-1-(4-chlorophenyl)-N-(4-(2,6-dimethoxyphenyl)-5-(2-furanyl)-4H-1,2,4-triazol-3-yl)-2-propanesulfonamide]	2.3	18.8	20.5	–
COc1cccc(OC)c1-n1c(NS(=O)(=O)CCc2ncc(Cl)cc2CCN2CCCC2)nnc1-c1ccco1 [Example 232.0, 2-(5-Chloro-3-(2-(1-pyrrolidinyl)ethyl)-2-pyridinyl)-N-(4-(2,6-dimethoxyphenyl)-5-(2-furanyl)-4H-1,2,4-triazol-3-yl)ethanesulfonamide]	0.45	–	–	–
COc1cccc(OC)c1-n1c(NS(=O)(=O)[C@@H](C)Cc2ncc(Cl)cc2C(N)=O)nnc1-c1ccco1 (single isomer, unassigned) [Example 17.0, 5-chloro-2-((2S)-2-((4-(2,6-dimethoxyphenyl)-5-(2-furanyl)-4H-1,2,4-triazol-3-yl)sulfamoyl)propyl)-3-pyridinecarboxamide or 5-chloro-2-((2R)-2-((4-(2,6-dimethoxyphenyl)-5-(2-furanyl)-4H-1,2,4-triazol-3-yl)sulfamoyl)propyl)-3-pyridinecarboxamide]	0.26	–	–	–
COc1cccc(OC)c1-n1c(NS(=O)(=O)[C@@H](C)[C@H](O)c2coc(C)n2)nnc1-c1ccc(C)o1 (single isomer, unassigned) [Example 275.0, (1R,2S)—N-(4-(2,6-Dimethoxyphenyl)-5-(5-methyl-2-furanyl)-4H-1,2,4-triazol-3-yl)-1-hydroxy-1-(2-methyl-1,3-oxazol-4-yl)-2-propanesulfonamide or (1S,2R)—N-(4-(2,6-dimethoxyphenyl)-5-(5-methyl-2-furanyl)-4H-1,2,4-triazol-3-yl)-1-hydroxy-1-(2-methyl-1,3-oxazol-4-yl)-2-propanesulfonamide]	0.85	–	–	–
COc1cccc(OC)c1-n1c(NS(=O)(=O)[C@@H]2CC[C@@H](O)[C@H](O)C2)nnc1-c1ccc(C)o1 (single isomer, unassigned) [Example 406.0]	67	–	–	–
COc1cccc(OC)c1-n1c(NS(=O)(=O)[C@H](C)[C@@H](O)c2ccc(C#N)c(C)n2)nnc1-c1ccc(C)o1 (racemic) [Example 88.0]	0.51	–	–	–
COc1cccc(OC)c1-n1c(NS(=O)(=O)[C@H](C)Cc2cnc(C)cn2)nnc1-c1ccc(C)o1 (single isomer, unassigned) [Example 24.0, (2R)—N-(4-(2,6-dimethoxyphenyl)-5-(5-methyl-2-furanyl)-4H-1,2,4-triazol-3-yl)-1-(5-methyl-2-pyrazinyl)-2-propanesulfonamide or (2S)—N-(4-(2,6-dimethoxyphenyl)-5-(5-methyl-2-furanyl)-4H-1,2,4-triazol-3-yl)-1-(5-methyl-2-pyrazinyl)-2-propanesulfonamide]	0.36	–	–	–
COc1ncnc(OC)c1-n1c(NS(=O)(=O)CCc2ccc(Cl)cc2)nnc1-c1ccco1 [Example 253.0, 2-(4-Chlorophenyl)-N-(4-(4,6-dimethoxy-5-pyrimidinyl)-5-(2-furanyl)-4H-1,2,4-triazol-3-yl)ethanesulfonamide]	15	–	–	–
COc1cccc(OC)c1-n1c(NS(=O)(=O)[C@H](C)[C@@H](O)c2ncc(F)cn2)nnc1-c1ccc(C)o1 (racemic) [Example 96.0, (1R,2S)—N-(4-(2,6-Dimethoxyphenyl)-5-(5-methyl-2-furanyl)-4H-1,2,4-triazol-3-yl)-1-(5-fluoro-2-pyrimidinyl)-1-hydroxy-2-propanesulfonamide and (1S,2R)—N-(4-(2,6-dimethoxyphenyl)-5-(5-methyl-2-furanyl)-4H-1,2,4-triazol-3-yl)-1-(5-fluoro-2-pyrimidinyl)-1-hydroxy-2-propanesulfonamide]	0.34	–	–	–
COc1cccc(OC)c1-n1c(NS(=O)(=O)[C@@H](C)[C@H](O)c2cc3ccccn3n2)nnc1-c1ccc(C)o1 (single isomer, unassigned) [Example 266.0, (1R,2S)—N-(4-(2,6-Dimethoxyphenyl)-5-(5-methyl-2-furanyl)-4H-1,2,4-triazol-3-yl)-1-hydroxy-1-pyrazolo[1,5-a]pyridin-2-yl-2-propanesulfonamide or (1S,2R)—N-(4-(2,6-dimethoxyphenyl)-5-(5-methyl-2-furanyl)-4H-1,2,4-triazol-3-yl)-1-hydroxy-1-pyrazolo[1,5-a]pyridin-2-yl-2-propanesulfonamide]	0.21	–	–	–
COc1cccc(OC)c1-n1c(NS(=O)(=O)CCN2C(=O)N(C)CC[C@H]2C)nnc1-c1ccc(C)o1 (mixture of isomers) [Example 160.0, N-(4-(2,6-Dimethoxyphenyl)-5-(5-methyl-2-furanyl)-4H-1,2,4-triazol-3-yl)-2-((6R)-3,6-dimethyl-2-oxotetrahydro-1 (2H)-pyrimidinyl)ethanesulfonamide and N-(4-(2,6-dimethoxyphenyl)-5-(5-methyl-2-furanyl)-4H-1,2,4-triazol-3-yl)-2-((6S)-3,6-dimethyl-2-oxotetrahydro-1(2H)-pyrimidinyl)ethanesulfonamide]	0.5	–	–	–
COc1cccc(OC)c1-n1c(NS(=O)(=O)CCc2ncc(Cl)cc2C2=CCOCC2)nnc1-c1ccco1 [Example 215.0, 2-(5-Chloro-3-(3,6-dihydro-2H-pyran-4-yl)-2-pyridinyl)-N-(4-(2,6-dimethoxyphenyl)-5-(2-furanyl)-4H-1,2,4-triazol-3-yl)ethanesulfonamide]	0.22	–	–	–
COc1cccc(OC)c1-n1c(NS(=O)(=O)[C@@H](C)Cc2cnc(C)cn2)nnc1-c1ccc(C)o1 (single isomer, unassigned) [Example 38.0, (2S)—N-(4-(2,6-dimethoxyphenyl)-5-(5-methyl-2-furanyl)-4H-1,2,4-triazol-3-yl)-1-(5-methyl-2-pyrazinyl)-2-propanesulfonamide or (2R)—N-(4-(2,6-dimethoxyphenyl)-5-(5-methyl-2-furanyl)-4H-1,2,4-triazol-3-yl)-1-(5-methyl-2-pyrazinyl)-2-propanesulfonamide]	3.8	–	–	–
